Here are results for 13 compounds from patent US12234202B2, “Covalent inhibitors of coronavirus papain-like protease” (UT-Battelle, LLC, priority 2021, dated 2025).

Read-outs that look alike come from different tables or passages of the source.

Data set [1] deals with T1, SARS-CoV-2 PLpro (Severe acute respiratory syndrome coronavirus 2, UniProt P0DTD1). Description: biochemical. As to conditions: for kinact/KI / kinact/KI (M^−1 s^−1): second-order rate constant.
In data set [2] the target is T1, SARS-CoV-2 PLpro. Put plainly: biochemical. It counts as biochemical. As to conditions: after 30-minute incubation; Z-RLRGG-AMC.
Data set [3] has as its system SARS-CoV-2 Delta (B.1.617.2). Description: CPE assay in Vero E6 cells, neutral red staining, Delta. As to conditions: Severe acute respiratory syndrome coronavirus 2, Vero C1008. It counts as cell-based.
A short description of data set [4]: in vitro. The conditions noted are these: human, s9.
The test system of data set [5] is Vero E6 cells. The conditions noted are these: 2 μM CP-100356, Delta row.
Data set [6] relates to SARS-CoV-2 USA-WA1/2020. Put plainly: CPE assay in Vero E6 cells, neutral red staining, USA-WA1/2020. As to conditions: Severe acute respiratory syndrome coronavirus 2, Vero C1008. It counts as cell-based.
Data set [7] concerns SARS-CoV-2 Omicron (B.1.1.529). Description: CPE assay in Vero E6 cells, neutral red staining, Omicron. The data set is classed as cell-based. The conditions noted are these: Severe acute respiratory syndrome coronavirus 2, Vero C1008.
A short description of data set [8]: in vitro. The conditions noted are these: African green monkey.
The nature of data set [9]: in vitro. The conditions noted are these: human, microsomes.
For data set [10], the target named is seven human DUBs, UCHL1, USP2, USP4, USP7, USP8, USP15, and USP30. Description: Human deubiquitinase selectivity screening. The data set is classed as biochemical. The conditions noted are these: for IC50: UCHL1, USP2, USP4, USP7, USP8, USP15, USP30, read-out: IC50 (μM) values versus seven human deubiquitinases; for inhibition of human DUBs: concentrations up to 30 μM.

Data set [11] concerns SARS-CoV-2 Omicron (B.1.1.529). Description: microbe, parasite or virus in culture. The data set is classed as cell-based. As to conditions: Severe acute respiratory syndrome coronavirus 2, Caco-2.
In data set [12] the test system is Vero E6 cells.
Data set [13] deals with Caco-2 cells. The conditions noted are these: Delta row.
Data set [14] relates to SARS-CoV-2 USA-WA1/2020. Description: microbe, parasite or virus in culture. The data set is classed as cell-based. The conditions noted are these: Severe acute respiratory syndrome coronavirus 2, Caco-2.
Data set [15] deals with SARS-CoV-2 Delta (B.1.617.2). Put plainly: microbe, parasite or virus in culture. As to conditions: Severe acute respiratory syndrome coronavirus 2, Caco-2. The data set is classed as cell-based.
Data set [16] can be described thus: in vitro. The conditions noted are these: African green monkey. The source holds these as a separate data set.
Data set [17] in a line: in vitro. As to conditions: human.
The conditions of data set [18]: mouse, in vivo.
For data set [19], the target named is T1, SARS-CoV-2 PLpro. Put plainly: biochemical. The conditions noted are these: Ub-rhodamine substrate.
Data set [20] has as its target T1, SARS-CoV-2 PLpro. Put plainly: biochemical. As to conditions: ISG15-CHOP2 substrate.
For data set [21], the system named is SARS-CoV-2 isolate USA-WA1/2020. Put plainly: microbe, parasite or virus in culture. The data set is classed as cell-based.
Data set [22] relates to viral replication in Vero E6 cells. The conditions noted are these: K. Ratia et al.; cited from earlier work.
Data set [23] has as its target SARS-CoV PLpro (Severe acute respiratory syndrome coronavirus (SARS-CoV), UniProt P0C6X7). The conditions noted are these: cited from earlier work.
In data set [24] the target is HAUSP (Homo sapiens (Human), UniProt Q93009). The conditions noted are these: K. Ratia et al.; cited from earlier work.
In data set [25] the target is ubiquitin C-terminal hydrolase UCH-L3 (Homo sapiens (Human), UniProt P15374). As to conditions: K. Ratia et al.; cited from earlier work.
In data set [26] the target is ubiquitin C-terminal hydrolase UCH-L1 (Homo sapiens (Human), UniProt P09936). The conditions noted are these: K. Ratia et al.; cited from earlier work.
In data set [27] the test system is cell viability. The conditions noted are these: concentrations up to 50 μM in cell viability assays; cited from earlier work.
The target of data set [28] is deISGylase USP18 (Homo sapiens (Human), UniProt Q9UMW8). The conditions noted are these: K. Ratia et al.; cited from earlier work.
Where [29] appears, read: time-dependent inhibition yes/no.
Where [30] appears, read: cytopathic effect in SARS-CoV-2-infected Vero E6 cells, 48 h, MOI 0.1.

Turning to `COC(=O)CCc1ccccc1C(=O)N[C@H](C)c1cccc2ccccc12` [Compound 3, methyl (R)-3-(2-((1-(naphthalen-1-yl)ethyl)carbamoyl)phenyl)-propanoate], the Time dep. result in [1] (setting [29]) is “no”.

In general, IC50 refers to the point on the concentration scale where inhibition reaches its midpoint. Compound `C[C@@H](NC(=O)c1ccccc1CCC(=O)NN)c1cccc2ccccc12` [Compound 5, (R)-2-(3-hydrazineyl-3-oxopropyl)-N-(1-(naphthalen-1-yl)ethyl)benzamide] showed an IC50 in data set [2] of 24 µM. For the same compound, in data set [1] (setting [29]), the Time dep. result is on record as “no”.

As a reminder, the EC50 is the midpoint of the concentration-response curve. Broadly, the half-life is how long it takes for the measured level to halve. What is called EC90 is the concentration needed for an effect of 90%. In the case of `COC(=O)/C=C/C(=O)NNC(=O)CCc1ccccc1C(=O)N[C@H](C)c1cccc2ccccc12` [Compound 7, methyl(R,E)-4-(2-(3-(2-((1-(naphthalen-1 yl)ethyl)carbamoyl)-phenyl)propanoyl)hydrazineyl)-4-oxobut-2-enoate], the EC50 in [3] stood at 0.29 µM; in data set [6], 0.068 µM; in [7], 0.68 µM. The half-life at 1 μM worked out at 60 min in data set [4] and 50 min in [9]. Moreover, the CC50 in [5], in [13], in data set [16] and in data set [17] was greater than 10 µM in each case. The CC50 at 48 h in data set [8] was greater than 30 µM. The IC50 in [10] was greater than 30 µM. Further, the “inhibition of human DUBs” value in data set [10] is “no inhibition was observed”. In addition, the EC90 in data set [11] was 2.4 µM; in data set [14], 0.26 µM; in data set [15], greater than 10 µM. In addition, in data set [12], the “Cytotox. (<30 μM)” value is listed as “no”. Further, the Time dep. result in data set [1] (setting [29]) is recorded as “yes”. Further, the “exposure following IV dosing” value in [18] (iv, 3 mg/kg) is reported as “Little exposure was observed”. Also, the “exposure following PO dosing” value in [18] (po, 10 mg/kg) was “no exposure recorded”.

What is called kinact/KI is the maximal inactivation rate divided by the concentration that gives half of it. `COC(=O)/C=C/C(=O)NNC(=O)CCc1ccc(NC(C)=O)cc1C(=O)N[C@H](C)c1cccc2ccccc12` [Compound 8, methyl-(R,E)-4-(2-(3-(4-acetamido-2-((1-(naphthalen-1-yl)ethyl)carbamoyl)phenyl)propanoyl)hydrazineyl)-4-oxobut-2-enoate]: the “Cytotox. (<30 μM)” value in [12] is reported as “no”. In addition, in [1], the kinact/KI came out at 14000 M⁻¹ s⁻¹ and the “kinact/KI (M^−1 s^−1)” value was 14,000 M^−1 s^−1.

As for `C[C@@H](NC(=O)c1ccccc1CCC(=O)NNC(=O)CCl)c1cccc2ccccc12` [Compound 9, (R)-2-(3-(2-(2-chloroacetyl)hydrazineyl)-3-oxopropyl)-N-(1-(naphthalen-1-yl)ethyl)benzamide], the half-life at 1 μM came to 3 min in data set [4] and 7 min in [9]. For the same compound, in data set [8], the CC50 at 48 h was greater than 30 µM. Moreover, the IC50 in data set [19] was 1.96 µM; in data set [10], greater than 30 µM; in data set [20], 20.2 µM; in data set [2], 5.4 µM. In addition, the “inhibition of human DUBs” value in data set [10] was “no inhibition was observed”. Also, the “Cytotox. (<30 μM)” value in data set [12] was “no”. Also, in data set [21] (Severe acute respiratory syndrome coronavirus 2, Vero C1008, cytopathic effect in SARS-CoV-2-infected Vero E6 cells, 48 h, MOI 0.1), a half-maximal effect (EC50) was put at 34 µM. In addition, the kinact/KI in data set [1] was determined as 100 M⁻¹ s⁻¹. In data set [1], the “kinact/KI (M^−1 s^−1)” value is 103 M⁻¹ s⁻¹. For the same compound, the Time dep. result in data set [1] (setting [29]) is “yes”.

Consider `CC(=O)Nc1ccc(CCC(=O)NNC(=O)CCl)c(C(=O)N[C@H](C)c2cccc3ccccc23)c1` [Compound 10, (R)-5-acetamido-2-(3-(2-(2-chloroacetyl)hydrazineyl)-3-oxopropyl)-N-(1-(naphthalen-1-yl)ethyl)benzamide], for which, in data set [12], the “Cytotox. (<30 μM)” value is “no”. Besides, the cytoprotective effects entry in data set [21] (SARS-CoV-2-infected Vero E6 cells) is given as “insignificant cytoprotective effects”. Also, in data set [21] (setting [30]), the “EC50 (μM)” value is on record as “no CPE”. This compound also had an IC50 in data set [2] of 4.4 µM. In data set [1], the kinact/KI stood at 120 M⁻¹ s⁻¹ and the “kinact/KI (M^−1 s^−1)” value came to 120 M⁻¹ s⁻¹. Moreover, the Time dep. entry in data set [1] (setting [29]) is given as “yes”.

For the compound `C[C@@H](NC(=O)c1ccccc1CCC(=O)NNC(=O)CC#N)c1cccc2ccccc12` [Compound 11, (R)-2-(3-(2-(2-cyanoacetyl)hydrazineyl)-3-oxopropyl)-N-(1-(naphthalen-1-yl)ethyl)benzamide], the “Cytotox. (<30 μM)” value in data set [12] is given as “no”. Moreover, the “EC50 (μM)” value in data set [21] (setting [30]) was “no CPE”. In data set [2], this compound had an IC50 of 8 µM. Besides, the Time dep. entry in [1] (setting [29]) was “not and no”.

As to `C#CC(=O)NNC(=O)CCc1ccccc1C(=O)N[C@H](C)c1cccc2ccccc12` [Compound 12, (R)—N-(1-(naphthalen-1-yl)ethyl)-2-(3-oxo-3-(2-propioloylhydrazineyl)propyl)benzamide], the CC50 at 48 h in [8] was 1 to 5 µM. Besides, the “Cytotox. (<30 μM)” value in data set [12] is “yes”. In addition, the “EC50 (μM)” value in data set [21] (setting [30]) was “no CPE”. For the same compound, the IC50 in data set [2] came to 0.098 µM. Moreover, in data set [1], the kinact/KI came to 4800 M⁻¹ s⁻¹. Moreover, in data set [1] (setting [29]), the Time dep. entry is “Time-dependent inhibition was observed and yes”.

On to `C[C@@H](NC(=O)c1ccccc1CCC(=O)NNC(=O)C(C#N)=CC1CC1)c1cccc2ccccc12` [Compound 13, (R)-2-(3-(2-(2-cyano-3-cyclopropylacryloyl)hydrazineyl)-3-oxopropyl)-N-(1-(naphthalen-1-yl)ethyl)benzamide], for which, in data set [8], the CC50 at 48 h is 1 to 5 µM. Also, the “Cytotox. (<30 μM)” value in [12] is “yes”. Also, the “EC50 (μM)” value in [21] (setting [30]) is recorded as “no CPE”. In [2], this compound had an IC50 greater than 200 µM. Further, in data set [1] (setting [29]), the Time dep. entry is “not and no”.

Consider `Cc1ccccc1C(=O)N[C@H](C)c1cccc2ccccc12` [Compound 14, (R)-2-methyl-N-(1-(naphthalen-1-yl)ethyl)benzamide], for which the values for the half-life at 1 μM in [4] and in data set [9] were greater than 60 min and 41 min, respectively. In addition, the “Cytotox. (<30 μM)” value in data set [12] is reported as “no”. The “EC50 (μM)” value in [21] (setting [30]) was “no CPE”. Besides, in data set [22], the EC50 is 10 µM. The compound also registered an IC50 in [2] of 100 µM.

For `CC(=O)Nc1ccc(C)c(C(=O)N[C@H](C)c2cccc3ccccc23)c1` [Compound 15, (R)-5-acetamido-2-methyl-N-(1-(naphthalen-1-yl)ethyl)benzamide], the “Cytotox. (<30 μM)” value in data set [12] was “no”. In addition, the “EC50 (μM)” value in data set [21] (setting [30]) is “no CPE”. Also, the EC50 in [22] is 13.1 µM. For the same compound, the IC50 in data set [2] was 6.2 µM; in data set [23], 2.6 µM.

As to `CCC(CC)COC(=O)[C@H](C)N[P@](=O)(OC[C@H]1O[C@@](C#N)(c2ccc3c(N)ncnn23)[C@H](O)[C@@H]1O)Oc1ccccc1` [remdesivir, reference compound], in data set [21] (Severe acute respiratory syndrome coronavirus 2, Vero C1008, 48 h), the midpoint of the response, the EC50, lay at 0.74 µM.

On to GRL0617, for which the IC50 in data set [24], in data set [25], in [26] and in [28] was greater than 100 µM in each case. Also, the Time dep. entry in [1] was “no”. Further, the cytotoxicity entry in [27] was “does not display cytotoxicity”.
